{"source": "patent US8541404B2", "about": "“Inhibitors of the human aldosterone synthase CYP11B2” (ElexoPharm GmbH, priority 2009, dated 2013)", "note": "Where a name gives a salt, the structure may show the parent alone.", "data": [{"units": {"melting point": "°C"}, "values": [{"smiles": "O=C1COc2cc(-c3cncc4ccccc34)ccc2N1", "note": "[Example 55, 7-(Isoquinolin-4-yl)-2H-benzo[b][1,4]oxazin-3(4H)-one]", "melting point": 266}, {"smiles": "O=C1CCc2cc(-c3cncc(F)c3)cc3c2N1CC3", "note": "[Example 27, 8-(5-Fluoropyridin-3-yl)-1,2,5,6-tetrahydro-pyrrolo[3,2,1-ij]quinolin-4-one]", "melting point": 158}, {"smiles": "O=C1CCc2cc(-c3cccnc3)cc([N+](=O)[O-])c2N1", "note": "[Example 13, 8-Nitro-6-pyridin-3-yl-3,4-dihydro-1H-quinolin-2-one]", "melting point": 189}, {"smiles": "CCC(c1cc2c3c(c1)CCN3C(=O)CC2)n1ccnc1", "note": "(centres unmarked) [Example 60, 8-(1-(1H-imidazol-1-yl)propyl)-1,2,5,6-tetrahydropyrrolo[3,2,1-ij]quinolin-4-one]", "melting point": 195}, {"smiles": "CC1(C)CC(=O)N2CCc3cc(-c4cccnc4)cc1c32", "note": "[Example 24, 6,6-Dimethyl-8-pyridin-3-yl-1,2,5,6-tetrahydro-pyrrolo[3,2,1-ij]quinolin-4-one]", "melting point": 180}, {"smiles": "O=C1CCc2cc(-c3cncc(-c4ccccc4)c3)cc3c2N1CC3", "note": "[Example 33, 8-(5-Phenylpyridin-3-yl)-1,2,5,6-tetrahydro-pyrrolo[3,2,1-ij]quinolin-4-one]", "melting point": 189}, {"smiles": "S=C1CCc2cc(-c3cccnc3)cc3c2N1CC3", "note": "(as salt: HCl) [Example 22, 8-Pyridin-3-yl-1,2,5,6-tetrahydro-pyrrolo[3,2,1-ij]quinoline-4-thione]", "melting point": 283}, {"smiles": "O=C1CCc2cc(-c3cncc4ccccc34)cc3c2N1CCC3", "note": "[Example 20, 9-Isoquinolin-4-yl-1,2,6,7-tetrahydro-5H-pyrido[3,2,1-ij]quinolin-3-one]", "melting point": 159}, {"smiles": "CC(C)Oc1cncc(-c2cc3c4c(c2)CCN4C(=O)CC3)c1", "note": "[Example 34, 8-(5-Isopropoxypyridin-3-yl)-1,2,5,6-tetrahydro-pyrrolo[3,2,1-ij]quinolin-4-one]", "melting point": 155}, {"smiles": "O=C1CCc2cc(-c3cccnc3)cc3c2N1CCC3", "note": "[Example 16, 9-Pyridin-3-yl-1,2,6,7-tetrahydro-5H-pyrido[3,2,1-ij]quinolin-3-one]", "melting point": 123}, {"smiles": "O=C1CCc2cc(-c3cccnc3)cc3c2N1CC3", "note": "[Example 11, 8-Pyridin-3-yl-1,2,5,6-tetrahydro-pyrrolo[3,2,1-ij]quinoline-4-one]", "melting point": 152}, {"smiles": "O=C1CCc2cc(-c3cccnc3)c(O)cc2N1", "note": "[Example 50]", "melting point": 298}, {"smiles": "O=C1CCc2cc(-c3cccnc3)c(F)cc2N1", "note": "[Example 47]", "melting point": 228}, {"smiles": "O=C1CCc2cc(-c3cncc4ccccc34)cc(F)c2N1", "note": "[Example 48, 8-Fluoro-6-isoquinolin-4-yl-3-yl-3,4,4a,8a-tetrahydro-1H-quinolin-2-one]", "melting point": 202}, {"smiles": "O=C1CCc2cc(-c3cccnc3)cc(F)c2N1", "note": "[Example 46]", "melting point": 203}, {"smiles": "O=C1CCc2cc(-c3cncc(C(F)(F)F)c3)cc3c2N1CC3", "note": "[Example 26, 8-(5-Trifluoromethylpyridin-3-yl)-1,2,5,6-tetrahydro-pyrrolo[3,2,1-ij]quinolin-4-one]", "melting point": 212}, {"smiles": "CCOc1cncc(-c2cc3c4c(c2)CCN4C(=O)CC3)c1", "note": "[Example 25, 8-(5-Ethoxypyridin-3-yl)-1,2,5,6-tetrahydro-pyrrolo[3,2,1-ij]quinolin-4-one]", "melting point": 172}, {"smiles": "Fc1cc2c(cc1-c1cccnc1)CCC(=S)N2", "note": "[Example 52]", "melting point": 248}, {"smiles": "COc1cncc(-c2cc3c4c(c2)CCN4C(=O)CC3)c1", "note": "[Example 17, 8-(5-Methoxypyridin-3-yl)-1,2,5,6-tetrahydro-pyrrolo[3,2,1-ij]quinolin-4-one]", "melting point": 172}, {"smiles": "O=C1CCc2cc(-c3cncnc3)cc3c2N1CC3", "note": "[Example 30, 8-Pyrimidin-5-yl-1,2,5,6-tetrahydro-pyrrolo[3,2,1-ij]quinolin-4-one]", "melting point": 186}, {"smiles": "CN1C(=O)CCc2cc(-c3cccnc3)ccc21", "note": "[Example 2, 1-Methyl-6-pyridin-3-yl-3,4-dihydro-1H-quinolin-2-one]", "melting point": 101}, {"smiles": "O=C(c1cccnc1)c1cc2c3c(c1)CCN3C(=O)CC2", "note": "[Example 32, 8-(Pyridine-3-carbonyl)-1,2,5,6-tetrahydro-pyrrolo[3,2,1-ij]quinolin-4-one]", "melting point": 147}, {"smiles": "Fc1cc(-c2cccnc2)cc2c1NC(=S)CC2", "note": "[Example 51]", "melting point": 235}, {"smiles": "O=C1CCc2cc(-c3cncc4ccccc34)c(F)cc2N1", "note": "[Example 49]", "melting point": 281}, {"smiles": "O=C1CCc2cc(-c3ccncc3)cc3c2N1CC3", "note": "[Example 29, 8-Pyridin-4-yl-1,2,5,6-tetrahydro-pyrrolo[3,2,1-ij]quinolin-4-one]", "melting point": 174}, {"smiles": "COc1cncc(-c2ccc3c(c2)CCC(=O)N3)c1", "note": "[Example 4, 6-(5-Methoxypyridin-3-yl)-3,4-dihydro-1H-quinolin-2-one]", "melting point": 215}, {"smiles": "S=C1CCc2cc(-c3cccnc3)cc(Cl)c2N1", "note": "[Example 15, 8-Chloro-6-pyridin-3-yl-3,4-dihydro-1H-quinoline-2-thione]", "melting point": 175}, {"smiles": "O=C1CCc2cc(-c3cncc(O)c3)cc3c2N1CC3", "note": "(as salt: HCl) [Example 23, 8-(5-Hydroxypyridin-3-yl)-1,2,5,6-tetrahydro-pyrrolo[3,2,1-ij]quinolin-4-one]", "melting point": "> 300"}, {"smiles": "CC(C)N1C(=O)CCc2cc(-c3cccnc3)ccc21", "note": "[Example 10, 1-Isopropyl-6-pyridin-3-yl-3,4-dihydro-1H-quinolin-2-one]", "melting point": 101}, {"smiles": "O=C1CCc2cc(-c3cncc(-c4cccc(F)c4)c3)cc3c2N1CC3", "note": "[Example 37, 8-[5-(3-Fluorophenyl)-pyridin-3-yl]-1,2,5,6-tetrahydro-pyrrolo[3,2,1-ij]quinolin-4-one]", "melting point": 181}, {"smiles": "O=C1COc2cc(-c3cccnc3)ccc2N1", "note": "[Example 53, 7-(Pyridin-3-yl)-2H-benzo[b][1,4]oxazin-3(4H)-one]", "melting point": 256}, {"smiles": "CN1CC(=O)Nc2ccc(-c3cccnc3)cc21", "note": "[Example 57, 4-Methyl-6-(pyridin-3-yl)-3,4-dihydroquinoxalin-2(1H)-one]", "melting point": "> 300"}, {"smiles": "O=C1CCc2cc(-c3cncc4ccccc34)cc3c2N1CC3", "note": "[Example 18, 8-Isoquinolin-4-yl-1,2,5,6-tetrahydro-pyrrolo[3,2,1-ij]quinolin-4-one]", "melting point": 185}, {"smiles": "CC(c1cc2c3c(c1)CCN3C(=O)CC2)n1ccnc1", "note": "(centres unmarked) [Example 35, 8-(1-Imidazol-1-yl-ethyl)-1,2,5,6-tetrahydro-pyrrolo[3,2,1-ij]quinolin-4-one]", "melting point": 197}, {"smiles": "O=C1CCc2cc(-c3cncc(-c4ccc(F)cc4)c3)cc3c2N1CC3", "note": "[Example 36, 8-[5-(4-Fluorophenyl)-pyridin-3-yl]-1,2,5,6-tetrahydro-pyrrolo[3,2,1-ij]quinolin-4-one]", "melting point": 233}, {"smiles": "O=C(c1ccncc1)c1cc2c3c(c1)CCN3C(=O)CC2", "note": "[Example 31, 8-(Pyridine-4-carbonyl)-1,2,5,6-tetrahydro-pyrrolo[3,2,1-ij]quinolin-4-one]", "melting point": 184}, {"smiles": "O=C1CNc2cc(-c3cncc4ccccc34)ccc2N1", "note": "[Example 56, 6-(Isoquinolin-4-yl)-3,4-dihydroquinoxalin-2(1H)-one]", "melting point": "> 300"}, {"smiles": "O=C1CCc2cc(-c3cncnc3)ccc2N1", "note": "[Example 21, 6-Pyrimidin-5-yl-3,4-dihydro-1H-quinolin-2-one]", "melting point": 233}]}]}
